Reference: PubChem BioAssay (NCI)
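Values below derive from 48-hour exposures of cells grown in 96-well plates, with endpoints linearly interpolated between the two concentrations bracketing the appropriate inhibition level. At the GI50, growth is halved. TGI is the concentration that stops growth completely.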

Experiments:
Assay in all cases: DTP human tumour cell line panel, 48 h
[1] = tested on: IGROV1 ovarian
[2] = tested on: PC-3 prostate
[3] = tested on: M14 melanoma
[4] = tested on: SW-620 colon
[5] = tested on: SK-MEL-5 melanoma
[6] = tested on: OVCAR-8 ovarian
[7] = tested on: A498 renal
[8] = tested on: CAKI-1 renal
[9] = tested on: MALME-3M melanoma
[10] = tested on: TK-10 renal
[11] = tested on: SF-295 CNS
[12] = tested on: KM12 colon
[13] = tested on: ACHN renal
[14] = tested on: MDA-MB-231 breast
[15] = tested on: T-47D breast
[16] = tested on: EKVX NSCLC
[17] = tested on: UO-31 renal
[18] = tested on: CCRF-CEM leukemia
[19] = tested on: SF-268 CNS
[20] = tested on: SN12C renal
[21] = tested on: A549 NSCLC
[22] = tested on: SR leukemia
[23] = tested on: HS 578T breast
[24] = tested on: NCI/ADR-RES ovarian
[25] = tested on: SF-539 CNS
[26] = tested on: HT29 colon
[27] = tested on: U251 CNS
[28] = tested on: NCI-H23 lung
[29] = tested on: RXF 393 renal
[30] = tested on: OVCAR-4 ovarian
[31] = tested on: NCI-H460 lung
[32] = tested on: NCI-H226 lung
[33] = tested on: HCT-15 colon
[34] = tested on: RPMI-8226 leukemia
[35] = tested on: 786-0 renal
[36] = tested on: HCT-116 colon
[37] = tested on: MDA-MB-435
[38] = tested on: HOP-62 NSCLC
[39] = tested on: K-562 leukemia
[40] = tested on: BT-549 breast
[41] = tested on: UACC-62 melanoma
[42] = tested on: OVCAR-5 ovarian
[43] = tested on: SK-OV-3 ovarian
[44] = tested on: HCC-2998 colon
[45] = tested on: SK-MEL-28 melanoma
[46] = tested on: UACC-257 melanoma
[47] = tested on: SNB-75 CNS
[48] = tested on: SK-MEL-2 melanoma
[49] = tested on: NCI-H522 lung
[50] = tested on: DU-145 prostate
[51] = tested on: HOP-92 NSCLC
[52] = tested on: SNB-19 CNS
[53] = tested on: MCF7 breast
[54] = tested on: COLO 205 colon
[55] = tested on: HL-60(TB) leukemia
[56] = tested on: LOX IMVI melanoma
[57] = tested on: MOLT-4 leukemia
[58] = tested on: OVCAR-3 ovarian

Compound: CNC(=O)c1c(NC(=O)c2ccc(C(C)C)cc2)sc2c1CCC(=O)C2
- GI50 [1]: 0.542 µM
- TGI [1]: 2.4 µM
- GI50 [2]: 0.152 µM
- TGI [2]: 1.32 µM
- GI50 [3]: 0.454 µM
- TGI [3]: 2.03 µM
- GI50 [4]: 0.125 µM
- TGI [4]: 1.32 µM
- GI50 [5]: 0.605 µM
- TGI [5]: 1.7 µM
- GI50 [6]: 0.338 µM
- TGI [6]: 2.38 µM
- GI50 [7]: 0.715 µM
- TGI [7]: 3.78 µM
- GI50 [8]: 0.31 µM
- TGI [8]: 1.5 µM
- GI50 [9]: 0.891 µM
- TGI [9]: 2.94 µM
- GI50 [10]: 0.504 µM
- TGI [10]: 13 µM
- GI50 [11]: 1.13 µM
- TGI [11]: 3.35 µM
- GI50 [12]: 0.404 µM
- TGI [12]: 1.69 µM
- GI50 [13]: 0.279 µM
- TGI [13]: 1.14 µM
- GI50 [14]: 0.394 µM
- TGI [14]: 1.71 µM
- GI50 [15]: 0.341 µM
- TGI [15]: 2.3 µM
- GI50 [16]: 0.719 µM
- TGI [16]: 2.74 µM
- GI50 [17]: 0.26 µM
- TGI [17]: 1.1 µM
- GI50 [18]: 0.146 µM
- GI50 [19]: 0.443 µM
- TGI [19]: 2.41 µM
- GI50 [20]: 0.603 µM
- TGI [20]: 2.38 µM
- GI50 [21]: 0.401 µM
- TGI [21]: 5.45 µM
- GI50 [22]: 0.273 µM
- TGI [22]: 4.45 µM
- GI50 [23]: 0.357 µM
- TGI [23]: 2.34 µM
- GI50 [24]: 0.461 µM
- TGI [24]: 2.24 µM
- GI50 [25]: 0.306 µM
- TGI [25]: 1.22 µM
- GI50 [26]: 0.338 µM
- TGI [26]: 1.6 µM
- GI50 [27]: 0.253 µM
- TGI [27]: 1.42 µM
- GI50 [28]: 0.418 µM
- TGI [28]: 3.92 µM
- GI50 [29]: 0.289 µM
- TGI [29]: 1.38 µM
- GI50 [30]: 0.32 µM
- TGI [30]: 1.16 µM
- GI50 [31]: 0.58 µM
- TGI [31]: 2.82 µM
- GI50 [32]: 1.73 µM
- TGI [32]: 5.29 µM
- GI50 [33]: 0.216 µM
- TGI [33]: 1.47 µM
- GI50 [34]: 0.114 µM
- TGI [34]: 0.675 µM
- GI50 [35]: 0.636 µM
- TGI [35]: 3.91 µM
- GI50 [36]: 0.0892 µM
- TGI [36]: 1.34 µM
- GI50 [37]: 1.07 µM
- TGI [37]: 3.93 µM
- GI50 [38]: 3.41 µM
- TGI [38]: 18.4 µM
- GI50 [39]: 0.108 µM
- TGI [39]: > 100 µM
- GI50 [40]: 0.505 µM
- TGI [40]: 2.71 µM
- GI50 [41]: 0.453 µM
- TGI [41]: 1.94 µM
- GI50 [42]: 0.496 µM
- TGI [42]: 1.93 µM
- GI50 [43]: 2.47 µM
- TGI [43]: 9.09 µM
- GI50 [44]: 0.906 µM
- TGI [44]: 2.94 µM
- GI50 [45]: 0.748 µM
- TGI [45]: 3.39 µM
- GI50 [46]: 2.05 µM
- TGI [46]: 6.35 µM
- GI50 [47]: 1.05 µM
- TGI [47]: 3.53 µM
- GI50 [48]: 1.6 µM
- TGI [48]: 5.96 µM
- GI50 [49]: 0.149 µM
- TGI [49]: 1.04 µM
- GI50 [50]: 3.25 µM
- TGI [50]: 12.2 µM
- GI50 [51]: 0.703 µM
- TGI [51]: 3.39 µM
- GI50 [52]: 0.453 µM
- TGI [52]: 5.71 µM
- GI50 [53]: 0.428 µM
- TGI [53]: 5.32 µM
- GI50 [54]: 0.288 µM
- TGI [54]: 0.914 µM
- GI50 [55]: 0.303 µM
- TGI [55]: 2.15 µM
- GI50 [56]: 0.24 µM
- TGI [56]: 1.29 µM
- GI50 [57]: 0.5 µM
- TGI [57]: 7.91 µM
- GI50 [58]: 0.423 µM
- TGI [58]: 1.57 µM
